The values below come from patent publication US4962109A, “Insecticidally and acaricidally active pyrimidine esters and intermediates therefor” (Imperial Chemical Industries PLC, priority 1985, dated 1990).

Common to all, as to type: in vivo
Assay [1] relates to Tetranychus urticae (spider mites - adult). Kind of assay: Contact test on spider mites - adult (TUa), French bean leaf, mortality. The settings on record: 72 h, contact, 3 days, read-out: TUa grading of mortality. Put shortly:
(§1)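 Pests were supported on a host plant or food medium, and either or both were treated with preparations at 500, 250 or 100 ppm by weight. Mortality was assessed one to three days afterwards and banded into three grades, from A (80-100%) down to C (under 50%).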

Assay [2] deals with Tetranychus urticae (spider mites - ova). Put plainly: Contact test on spider mites - ova (TUe), French bean leaf, mortality. The settings on record: 144 h, contact, 6 days, read-out: TUe grading of mortality. Put shortly: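 Graded read-out: A 80-100%, B 50-79%, C below 50% mortality or knockdown, assessed usually 1-3 days post-treatment. Liquid preparations at 500, 250 or 100 ppm by weight, from acetone solution diluted in water with 0.01% wetting agent, applied to pests and/or their host plant or food medium.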

The next assay concerns Myzus persicae (aphids). Kind of assay: Contact test on aphids (MP), Chinese Cabbage leaf, mortality. The settings on record: 72 h, contact, 3 days, read-out: MP grading of mortality. In short, it runs like this: as §1
The test system of assay [3] is Nephotettix cincticeps (green leaf hopper - nymphs). Put plainly: Contact test on green leaf hopper nymphs (NC), Rice plant, mortality. The settings on record: 48 h, contact, 2 days, read-out: NC grading of mortality. Put shortly:
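Product dissolved in acetone, diluted in water with 0.01% wetting agent to 500, 250 or 100 ppm; nymphs and/or host rice plants treated. Mortality or knockdown assessed 1–3 days later, graded A (80-100%), B (50-79%), C (<50%).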

Assay [4] concerns Musca domestica (houseflies - adults). Kind of assay: Knockdown test on houseflies - adults (MD/KD), Cotton wool/sugar. The settings on record: 4 hours, read-out: MD/KD grading of knockdown. In short, it runs like this: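 Adult houseflies exposed to the compound at 500, 250 or 100 ppm in acetone/water with 0.01% wetting agent, on a cotton wool/sugar medium. Knockdown and mortality assessed, graded A (80-100%), B (50-79%) or C (<50%).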

The test system is the same in assay [5]. Kind of assay: Contact test on houseflies - adults (MD), Cotton wool/sugar, mortality. The settings on record: 72 h, contact, 3 days, read-out: MD grading of mortality. In short, it runs like this:
as §1

For assay [6], the system named is Blattella germanica (cockroach nymphs). Put plainly: Contact test on cockroach nymphs (BG/C), Plastic pot, mortality. The settings on record: 48 h, contact, 2 days, read-out: BG/C grading of mortality. In short, it runs like this: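 Cockroach nymphs and/or their medium were treated with aqueous preparations at 500, 250 or 100 ppm (acetone solution diluted in water with 0.01% Lissapol NX wetting agent). Mortality or knockdown was assessed typically 1–3 days later and graded A (80–100%), B (50–79%) or C (<50%).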

Assay [7] relates to Heliothis virescens (tobacco budworm - larvae). Kind of assay: Residual test on tobacco budworm larvae (HV), Cotton leaf, mortality. The settings on record: 48 h, read-out: HV grading of mortality. In short, it runs like this: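 Product in acetone diluted with water containing 0.01% Lissapol NX, at 500, 250 or 100 ppm; pests and/or host medium (here cotton leaf) treated. Mortality scored one to three days later, graded A (80-100%), B (50-79%), C (<50%).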

Assay [8] deals with Spodoptera exigua (lesser army worm - larvae). Kind of assay: Residual test on lesser army worm larvae (SP), Cotton leaf, mortality. The settings on record: 48 h, residual, 2 days, read-out: SP grading of mortality. Put shortly: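 Product dissolved in acetone and diluted in water with 0.01% wetting agent to 500, 250 or 100 ppm; larvae and/or cotton leaf host treated. Mortality or knockdown scored one to three days later and graded A (80-100%), B (50-79%) or C (<50%).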

Assay [9] relates to Diabrotica balteata (rootworm larvae). Put plainly: Residual test on rootworm larvae (DB), Filter paper/maize seed, mortality. The settings on record: 48 h, residual, 2 days, read-out: DB grading of mortality. Put shortly:
as §1

For `CC(C)(C)C(C(=O)OCc1ccc(F)c(Oc2ccccc2)c1)c1cnc(C2CC2)nc1` (racemic) [Compound 201, 4-fluoro-3-phenoxybenzyl (RS)-2-(2-cyclopropylpyrimidin-5-yl)-3,3-dimethylbutanoate], the mortality at 500 ppm in [1] lay in the range of 80 to 100%; in assay [2] it was 50 to 79%; in the assay with Myzus persicae (aphids), 80 to 100%; in [3], 80 to 100%; in assay [5], 80 to 100%; in [6], 50 to 79%. Further, the mortality at 500 ppm in assay [7], in [8] and in assay [9] was 80 to 100% throughout. The pest or weed control at 500 ppm in assay [4] was 80 to 100%.

With `CC(C)=NOCc1c(F)c(F)c(COC(=O)C(c2cnc(C(C)(C)C)nc2)C(C)(C)C)c(F)c1F` (racemic) [Compound 178, 4-(Prop-2-ylideneaminoxymethyl)-2,3,5,6-tetrafluorobenzyl (RS)-2-[2-(1,1-dimethylethyl)pyrimidin-5-yl]-3,3dimethylbutanoate], the mortality at 500 ppm in assay [1] is 80 to 100%; in assay [2], under 50%; in the assay with Myzus persicae (aphids), 80 to 100%; in assay [3], 80 to 100%; in assay [5] it was under 50%; in assay [6], under 50%. Further, the mortality at 500 ppm in assay [7], in [8] and in assay [9] was under 50% each time. In addition, the pest or weed control at 500 ppm in [4] is under 50%.

`COc1c(F)c(COC(C)C)c(F)c(F)c1COC(=O)C(c1cnc(C(C)(C)C)nc1)C(C)(C)C` (racemic) [Compound 190, 2,3,5-trifluoro-6-methoxy-4-[(1-methyl)ethoxy]methylbenzyl (RS)-2-[2-(1,1-dimethylethyl)pyrimidin-5-yl]-3,3-dimethylbutanoate]: the mortality at 500 ppm was 80 to 100% in assay [1]; under 50% in [2]; 80 to 100% in the assay with Myzus persicae (aphids); 80 to 100% in assay [3]; under 50% in assay [5]; under 50% in assay [6]. Also, the mortality at 500 ppm in assay [7] was 80 to 100%; in assay [8] it was 80 to 100%; in [9], under 50%. Further, the pest or weed control at 500 ppm in assay [4] is 80 to 100%.

With `CC(C)(C)c1ncc(C(C(=O)OCc2c(F)c(F)c(CC3CC3(Cl)Cl)c(F)c2F)C(C)(C)C)cn1` (racemic) [Compound 216, 4-[(2,2-dichlorocyclopropyl)methyl]-2,3,5,6-tetrafluorobenzyl (RS)-2-[2-(1,1-dimethylethyl)pyrimidin-5-yl]-3,3-dimethylbutanoate], the mortality at 500 ppm in assay [1] is 80 to 100%; in assay [2], under 50%; in the assay on Myzus persicae (aphids), under 50%; in assay [3], 50 to 79%; in [5], under 50%; in assay [6], under 50%. For the same compound, the mortality at 500 ppm in [7] is under 50%; in assay [8], 50 to 79%; in assay [9], under 50%. Besides, in assay [4], the pest or weed control at 500 ppm was under 50%.

As for `CC(C)(C)c1ncc(C(C(=O)OCc2c(F)c(F)c(CC=CCl)c(F)c2F)C(C)(C)C)cn1` (racemic) [Compound 14, 4-(EZ-3-chloroprop-2-en-1-yl)-2,3,5,6-tetrafluorobenzyl (RS)-2-[(1,1-dimethylethyl)pyrimidin-5-yl)-3,3-dimethylbutanoate], the mortality at 500 ppm in assay [1] is 80 to 100%; in assay [2], under 50%; in the assay with Myzus persicae (aphids) it was 80 to 100%; in assay [3] it was 80 to 100%; in assay [5], 80 to 100%; in [6], under 50%. Moreover, the results for the mortality at 500 ppm in [7], in [8] and in assay [9] were 80 to 100%, under 50% and under 50%, respectively. Further, the pest or weed control at 500 ppm in assay [4] is 50 to 79%.

In the case of `CC1(c2ncc(C(C(=O)OCc3ccc(F)c(Oc4ccccc4)c3)C(C)(C)C)cn2)CC1` (racemic) [Compound 204, 4-fluoro-3-phenoxybenzyl (RS)-2-[2-(1-methylcyclopropyl)pyrimidin-5-yl]-3,3-dimethylbutanoate], the mortality at 500 ppm is 80 to 100% in [1]; under 50% in assay [2]; 80 to 100% in the assay with Myzus persicae (aphids); 80 to 100% in assay [3]; 80 to 100% in [5]; 50 to 79% in assay [6]. Further, the mortality at 500 ppm is 80 to 100% in assay [7], 80 to 100% in assay [8] and under 50% in assay [9]. Besides, the pest or weed control at 500 ppm in assay [4] lay within 80 to 100%.

With `CCCc1c(F)c(F)c(COC(=O)C(c2cnc(C(C)(C)C)nc2)C(C)(C)C)c(F)c1F` (racemic) [Compound 168, 4-(n-propyl)-2,3,5,6-tetrafluorobenzyl (RS)-2-[2-(1,1-dimethylethyl)pyrimidin-5-yl]-3,3-dimethylbutanoate], the mortality at 500 ppm was 80 to 100% in assay [1]; 80 to 100% in assay [2]; 80 to 100% in the assay on Myzus persicae (aphids); 80 to 100% in assay [3]; under 50% in assay [5]; under 50% in assay [6]. The mortality at 500 ppm in [7] is 50 to 79%; in [8], 50 to 79%; in [9], under 50%. The pest or weed control at 500 ppm in [4] is under 50%.

On to `CC(OC(=O)C(c1cnc(-c2ccccc2)nc1)C(C)(C)C)c1cccc(Oc2ccccc2)n1` (racemic) [Compound 82, (RS)-1-(6-phenoxpyrid-2-yl)ethyl (RS)-2-(2-phenylpyrimidin-5-yl)-3,3-dimethylbutanoate], for which the mortality at 1000 ppm in [1] (1000 ppm) is 80 to 100%; in assay [2] (1000 ppm), under 50%; in the assay with Myzus persicae (aphids) (1000 ppm), 80 to 100%; in assay [3] (1000 ppm), 80 to 100%; in assay [5] (1000 ppm), under 50%; in [6] (1000 ppm), under 50%. Further, the mortality at 1000 ppm is 80 to 100% in assay [7], 80 to 100% in assay [8] (1000 ppm) and under 50% in assay [9] (1000 ppm). Moreover, the pest or weed control at 1000 ppm in assay [4] (1000 ppm) was in the range of 80 to 100%.

For the compound `CC(C)(C)c1ncc(C(C(=O)OCc2cccc(Oc3ccccc3)c2)C(C)(C)C)cn1` (racemic) [Compound 1, 3-phenoxybenzyl (RS)-2-[2-(1,1,-dimethylethyl)pyrimidin-5-yl]-3,3-dimethylbutanoate], the mortality at 500 ppm is 80 to 100% in [1]; 80 to 100% in assay [2]; 80 to 100% with Myzus persicae (aphids); 80 to 100% in assay [3]; under 50% in [5]; under 50% in assay [6]. Further, the mortality at 500 ppm in [7] is 80 to 100%; in [8], under 50%; in assay [9], under 50%. Further, the pest or weed control at 500 ppm in assay [4] was in the range of 80 to 100%.
